Data as given in ChEMBL document CHEMBL4138291, “Mucroniferanines A-G, Isoquinoline Alkaloids from Corydalis mucronifera” (J Nat Prod, 2018).

Target: Acetylcholinesterase (Homo sapiens, UniProt P22303)
Experiment: Inhibition of human erythrocyte AChE using S-acetylthiocholine iodide as substrate pretreated for 20 mins followed by substrate addition measured after 30 mins by Ellman's method

Acetylcholinesterase, sequence (P22303 whole entry): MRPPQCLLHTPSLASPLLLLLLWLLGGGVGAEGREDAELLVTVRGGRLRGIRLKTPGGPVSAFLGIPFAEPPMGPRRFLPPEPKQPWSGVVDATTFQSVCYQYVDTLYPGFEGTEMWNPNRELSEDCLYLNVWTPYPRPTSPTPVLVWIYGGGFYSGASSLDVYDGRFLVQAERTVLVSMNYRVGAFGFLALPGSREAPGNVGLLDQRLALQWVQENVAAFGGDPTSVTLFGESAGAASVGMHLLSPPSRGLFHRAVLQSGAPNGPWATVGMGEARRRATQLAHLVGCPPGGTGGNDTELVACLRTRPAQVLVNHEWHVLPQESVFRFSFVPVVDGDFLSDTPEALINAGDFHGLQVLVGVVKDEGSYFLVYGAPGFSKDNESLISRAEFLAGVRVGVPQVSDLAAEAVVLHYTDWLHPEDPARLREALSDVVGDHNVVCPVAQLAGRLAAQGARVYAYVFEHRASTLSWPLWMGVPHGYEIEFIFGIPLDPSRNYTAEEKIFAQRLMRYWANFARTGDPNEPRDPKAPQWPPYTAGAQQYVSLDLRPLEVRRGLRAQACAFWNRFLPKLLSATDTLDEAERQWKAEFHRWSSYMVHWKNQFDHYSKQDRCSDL

| Compound | IC50 [µM] |
| --- | --- |
| COc1ccc2c(c1O)CN1CCc3cc4c(cc3C1C2)OCO4 (configuration not stated) | > 100 |
| C[C@@]1(c2nccc3cc4c(cc23)OCO4)Oc2ccc3c(c2O1)OCO3 | > 100 |
| CO[C@@H]1O[C@](C)(c2nccc3cc4c(cc23)OCO4)c2ccc3c(c21)OCO3 | > 100 |
| CN1CCc2cc3c(cc2[C@H]1[C@H]1O[C@@H](O)c2c1ccc1c2OCO1)OCO3 | > 100 |
| CO[C@@H]1O[C@H]([C@@H]2c3cc4c(cc3CCN2C)OCO4)c2ccc3c(c21)OCO3 | > 100 |
| CO[C@@H]1O[C@@](C)(c2nccc3cc4c(cc23)OCO4)c2ccc3c(c21)OCO3 | > 100 |
| c1cc2cc3c(cc2c([C@H]2Oc4ccc5c(c4O2)OCO5)n1)OCO3 | 78.1 |
| CN1CCc2cc3c(cc2[C@H]1[C@H]1OC(=O)c2c1ccc1c2OCO1)OCO3 | > 100 |
| C[C@@H](c1ccc2c(c1O)OCO2)c1nccc2cc3c(cc12)OCO3 | > 100 |
| CO[C@H]1O[C@@](C)(c2nccc3cc4c(cc23)OCO4)c2ccc3c(c21)OCO3 | 28.3 |
| CN1CCc2cc3c(cc2C1=O)OCO3 | > 100 |
| C[C@]1(c2nccc3cc4c(cc23)OCO4)Oc2ccc3c(c2O1)OCO3 | > 100 |
| COC1c2c(ccc3c2OCO3)-c2ccc3cc4c(cc3c2N1C)OCO4 (configuration not stated) | 96.8 |
| c1cc2cc3c(cc2c([C@@H]2Oc4ccc5c(c4O2)OCO5)n1)OCO3 | > 100 |
| C[C@H](c1ccc2c(c1O)OCO2)c1nccc2cc3c(cc12)OCO3 | > 100 |
| CO[C@H]1O[C@](C)(c2nccc3cc4c(cc23)OCO4)c2ccc3c(c21)OCO3 | > 100 |
| CN1CCc2cc3c(cc2[C@@]12C(=O)c1ccc4c(c1[C@@H]2O)OCO4)OCO3 | > 100 |
| CN1CCc2cc3c(cc2C(=O)Cc2ccc4c(c2C1)OCO4)OCO3 | > 100 |
| CN1CCc2cc3c(cc2C12OCc1c(ccc4c1OCO4)C2=O)OCO3 (racemic) | > 100 |
| CC1(c2nccc3cc4c(cc23)OCO4)OC(O)c2c1ccc1c2OCO1 (single isomer, unassigned) | 11.3 |
| CC1(c2nccc3cc4c(cc23)OCO4)OC(O)c2c1ccc1c2OCO1 (single isomer, unassigned; epimer 1) | 12.2 |
| CN1Cc2c(ccc3c2OCO3)-c2ccc3cc4c(cc3c21)OCO4 [DIHYDROSANGUINARINE] | > 100 |
